The values below come from PMC6001782 (Chemistry (Weinheim an Der Bergstrasse, Germany), 2018).

The target in the assay is T1, BtGH99 (Bacteroides thetaiotaomicron, UniProt Q8A109).
T1 sequence (Q8A109 18-382): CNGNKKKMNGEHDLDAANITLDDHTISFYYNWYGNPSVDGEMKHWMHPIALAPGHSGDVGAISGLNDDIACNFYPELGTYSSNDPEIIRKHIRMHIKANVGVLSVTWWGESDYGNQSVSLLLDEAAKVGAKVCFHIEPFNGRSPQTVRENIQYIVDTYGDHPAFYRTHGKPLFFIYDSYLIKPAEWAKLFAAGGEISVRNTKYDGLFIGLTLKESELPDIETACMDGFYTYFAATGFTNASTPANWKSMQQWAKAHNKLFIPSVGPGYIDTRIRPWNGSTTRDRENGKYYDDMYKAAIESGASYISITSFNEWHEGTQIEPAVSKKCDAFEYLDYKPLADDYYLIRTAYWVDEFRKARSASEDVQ
The assay can be described thus: isothermal titration calorimetry. The class given is binding. In general terms: In ITC the heat of successive injections is recorded.

In turn, `N[C@@H]1CN[C@H](CO)[C@@H](O)[C@@H]1O[C@H]1O[C@H](CO)[C@@H](O)[C@H](O)[C@@H]1O` [compound 1, α‐D‐Mannopyranosyl‐(1→3)‐2‐amino‐1,2,5‐trideoxy‐1,5‐imino‐D‐mannitol] showed a Kd of 97.7 ± 4.9 µM.

The Kd is the equilibrium constant for the complex coming apart.
